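Test compounds were applied to cells in 96-well plates for 48 hours at 5 doses. GI50: concentration for 50% inhibition of growth. Definition used: TGI = concentration required for complete inhibition of growth.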
Key:
Assay in all cases: growth of human tumour cells (NCI), 48 h
A498 renal = test system: A498 renal
ACHN renal = test system: ACHN renal
CCRF-CEM leukemia = test system: CCRF-CEM leukemia
M14 melanoma = test system: M14 melanoma
M19-MEL melanoma = test system: M19-MEL melanoma
UACC-257 melanoma = test system: UACC-257 melanoma
BT-549 breast = test system: BT-549 breast
HCT-15 colon = test system: HCT-15 colon
PC-3 prostate = test system: PC-3 prostate
XF 498 CNS = test system: XF 498 CNS

| SMILES | TGI (A498 renal) | TGI (ACHN renal) | TGI (CCRF-CEM leukemia) | TGI (M14 melanoma) | TGI (M19-MEL melanoma) | TGI (UACC-257 melanoma) | TGI (BT-549 breast) | TGI (HCT-15 colon) | TGI (PC-3 prostate) | TGI (XF 498 CNS) | GI50 (A498 renal) | GI50 (ACHN renal) | GI50 (CCRF-CEM leukemia) | GI50 (HCT-15 colon) | GI50 (M14 melanoma) | GI50 (M19-MEL melanoma) | GI50 (UACC-257 melanoma) |
| --- | --- | --- | --- | --- | --- | --- | --- | --- | --- | --- | --- | --- | --- | --- | --- | --- | --- |
| CC(C)(C)C(=O)Cc1cc2c(cc1C(=O)O)S(=O)(=O)NC(C(C)(C)C)=C2 | > 100 µM | > 100 µM | > 100 µM | > 100 µM | > 100 µM | > 100 µM |  |  |  |  |  |  |  |  |  |  |  |
| C[N+]12C=CC=C1C(N1CCCC1)c1sc(-c3ccc(Cl)cc3)cc12 (stereo not given) | 41.4 µM | > 100 µM | 62.8 µM | 30.9 µM |  | 28.9 µM | 22 µM | 90.5 µM | 29.9 µM |  |  |  |  |  |  |  |  |
| CN(C)CCCN1c2ccc3ccccc3c2Sc2cccc(Cl)c21 | 25.8 µM | 12.6 µM | 3.52 µM | 3.58 µM |  | 3.1 µM | 42.7 µM | 22.7 µM | 11.8 µM |  |  |  |  |  |  |  |  |
| COc1cc(OC)cc(N(C)Cc2cnc3nc(N)nc(N)c3c2C)c1 | > 100 µM | > 100 µM | > 100 µM | 55.4 µM |  | > 100 µM | > 100 µM | > 100 µM | > 100 µM |  |  |  |  |  |  |  |  |
| COc1ccc2[nH]c3c(C)c4ccnc(NCCCN(C)CCCNC(=O)NCCCN(C)CCCNc5nccc6c(C)c7[nH]c8ccc(OC)cc8c7c(C)c56)c4c(C)c3c2c1 | 5 µM | 2.8 µM | 6.01 µM | 1.33 µM |  | > 14.3 µM | 4.99 µM | > 17.6 µM | 2.79 µM |  |  |  |  |  |  |  |  |
| Clc1ccc(CCN2CCN(CCCc3ccccc3)CC2)cc1Cl | 30 µM | 39.4 µM | > 100 µM | 28.1 µM |  | 31.3 µM | 29.4 µM | 27.8 µM | 31.6 µM |  |  |  |  |  |  |  |  |
| C[C@H]1C(=O)C2=C[C@H]1CCC(=O)[C@]1(C)CCCC(C)(C)[C@H]1C[C@H]2O | > 100 µM | 31.6 µM | 75.4 µM | 25.9 µM |  | 83.6 µM | 94.5 µM | 34.3 µM | > 100 µM |  |  |  |  |  |  |  |  |
| CCN1CCc2sc3[nH]c(=S)n(C)c(=O)c3c2C1 | > 100 µM | > 100 µM | > 100 µM | > 100 µM |  | > 100 µM | > 100 µM | > 100 µM | > 100 µM |  |  |  |  |  |  |  |  |
| c1ccc(C2(c3cc4ccccc4[nH]3)OCCO2)cc1 | > 100 µM | > 100 µM | 74 µM | > 100 µM |  | 99.8 µM | > 100 µM | > 100 µM | > 100 µM |  |  |  |  |  |  |  |  |
| COc1ccc(C2Oc3cc(OC)c(O)cc3[C@@H]2C)cc1 (stereo not given in full) | > 100 µM | 33.2 µM | 44.2 µM | 51.2 µM |  | > 100 µM |  | 35.4 µM |  | 35.6 µM |  |  |  |  |  |  |  |
| CN1C(=N\S(=O)(=O)c2ccc(Cl)cc2)/C(=N/N=P(c2ccccc2)(c2ccccc2)c2ccccc2)c2ccccc21 | > 100 µM | > 100 µM | > 100 µM | > 100 µM | > 100 µM | > 100 µM |  | > 100 µM |  | > 100 µM |  |  |  |  |  |  |  |
| COc1ccc(N=Nc2ccc3oc(=O)c(C(=O)Nc4ccc(OC)cc4)cc3c2)cc1 | 9.17 µM | 56.5 µM | > 100 µM | 43.5 µM |  | 73.9 µM | 39 µM | 45.2 µM | 43.1 µM |  |  |  |  |  |  |  |  |
| Clc1ccc(CCn2ccc3ccccc32)c(Cl)c1 | > 100 µM | > 100 µM | > 100 µM | > 100 µM |  | > 100 µM | > 100 µM | > 100 µM | > 100 µM |  |  |  |  |  |  |  |  |
| Cc1ccc(-n2cc(-c3ccc(Cl)cc3)c3c(NNC(=S)NCc4ccccc4)ncnc32)cc1 | 82.1 µM | > 100 µM | > 100 µM | 37.6 µM |  | 48 µM | 83 µM | 68.2 µM | 23.1 µM |  |  |  |  |  |  |  |  |
| CN(C)CCCNc1ccc2nnn3c4ccc([N+](=O)[O-])cc4c(=O)c1c23 | 6.33 µM | 5.92 µM | 12.1 µM | 8.31 µM | 16.2 µM | 16.7 µM | 19.2 µM | 7.77 µM | 11.7 µM | 11.4 µM |  |  |  |  |  |  |  |
| CCOc1c(OC)cc(CNNc2nccs2)cc1OC | > 100 µM | > 100 µM | > 100 µM | > 100 µM |  | > 100 µM | > 100 µM | > 100 µM | > 100 µM |  |  |  |  |  |  |  |  |
| COc1cccc(C(=O)C(O)c2cccc(OC)c2OC)c1OC (stereo not given) | > 100 µM | > 100 µM | > 100 µM | > 100 µM |  | > 100 µM | > 100 µM | > 100 µM | > 100 µM |  |  |  |  |  |  |  |  |
| COCN1C(=O)[C@@H]2C[C@@H](OC/C=C/CBr)CN2C(=O)c2ccccc21 | 66.4 µM | 54.8 µM | > 100 µM | 42.9 µM |  | 37.6 µM | > 100 µM | 56.2 µM | 51.8 µM |  |  |  |  |  |  |  |  |
| O=C(CCc1nnc2s/c(=C\c3ccc(Cl)cc3Cl)c(=O)n12)Nc1cc(Cl)c(Cl)cc1Cl | > 100 µM | > 100 µM | > 100 µM | > 100 µM | > 100 µM | > 100 µM |  | > 100 µM |  |  | > 100 µM | > 100 µM | > 100 µM | > 100 µM | > 100 µM | > 100 µM | > 100 µM |
| CC(C)(C)OC(=O)N1CC(COS(C)(=O)=O)c2ccc(O)cc21 (stereo not given) | 4.38 µM | 3.12 µM | 3.06 µM | 3.14 µM |  | 5.54 µM | 3.58 µM | 5.68 µM | 3.83 µM |  |  |  |  |  |  |  |  |
